Assay results taken from patent publication EP0616805A1, “Use of acyl L-carnitine gamma-hydroxybutyrate for the treatment of alcoholism” (Sigma-Tau Industrie Farmaceutiche Riunite S.p.A., priority 1993, dated 1994).

How the values were obtained:
Type in all cases: in vivo, Wistar male rats
[1] = system: rats chronically administered 10% ethanol; assay: alcohol withdrawal syndrome: tremors by the Hunt-Majchrowicz method; conditions: 100 mg/kg intraperitoneal, eight hours after suspension of ethanol; for number of tremors, 30 min: saline group 6 ± 2.5; for number of tremors, 60 min: saline group 8 ± 1.5; for number of tremors, 90 min: saline group 7 ± 1.5; for number of tremors, 120 min: saline group 8 ± 2.5
Protocol: The experiment was performed in Wistar male rats housed in groups of 5 per cage under conditions of constant light-dark alternation at 21°C and fed with standard laboratory feed. The animals were chronically administered 10% ethanol ad lib. for 6 months.
Eight hours after suspension of ethanol administration, the animals were divided into 4 groups of 5 rats each.
The first group (A) was administered saline solution intraperitoneally (15 ml/kg), the second group (B) was given VCGB (100 mg/kg), again intraperitoneally, the third group (C) received GHB (100 mg/kg), while the fourth group (D) was given IVC (100 mg/kg). For the purposes of assessing the effects induced by the above-mentioned treatments on occurrence of alcohol withdrawal syndrome, tremors were measured in the rat, where, as in man, they are the most characteristic sign of withdrawal syndrome. Evaluation of the number of tremors was done using the method described by Hunt and Majchrowicz (see Hunt W.A. and Majchrovicz E., Journal of Pharmacology and Experimental Therapeutics, 213, 9-12 (1980). The results are given here below in Table 2. TABLE 2.

alcohol-dependent rats = assay: modified Vogel test (licks at shock-linked drinking vessel) in alcohol-dependent rats; conditions: 100 mg/kg intraperitoneal at ethanol suspension; rats given 10% ethanol for 6 months; 10 min. exposure period; saline group 38.5 ± 8.5
Protocol: Wistar male rats (housed in groups of 5 per cage) were used, kept in conditions of constant light-dark alternation at 21°C and fed with standard laboratory feed. The animals were chronically administered 10% ethanol ad lib. for 6 months.
To assess the activity, if any, of VCGB on the anxiety component involved in the compulsive act of searching for alcohol, a modified version of the Vogel test was used as described by Keppler D. et al. in Exp. Mol. Path. 9, 279 (1968).
Prior to the start of the experiment the animals were deprived of water for 48 h. At the time of ethanol treatment suspension, the animals were divided into 4 groups who were given the following intraperitoneal administrations: the first group (A) received saline solution (15 ml/kg), the second group (B) VCGB (100 mg/kg), the third group (C) GHB (100 mg/kg) and the fourth group (D) IVC ([…]).
On the day of the test, the animals were provided with two drinking vessels, one containing water and the other a mixture of water and ethanol (90:10 v/v) in bottles, the metal spouts of which were connected up to a source of electricity: after every 5 licks at the drinking vessel an electric shock (1 mA) was delivered for 10 min. which obliged the animal to withdraw, overcoming its desire to drink the water-alcohol solution. Refusal of the animals to drink the water-alcohol solution, confining their attention only to the vessel containing water alone, was taken as an indication of efficacy. In evaluating the results, the numbers of licks were compared for treated animals versus controls over the 10 min. exposure period.

[2] = system: lipoperoxidation in the CNS of rats; assay: lipoperoxidation in the CNS: cerebral malonaldehyde (MDA) after chronic ethanol treatment; conditions: brain homogenate; 10% ethanol for two months, then 100 mg/kg single intraperitoneal dose; Control 0.543 ± 0.19, Ethanol 1.12 ± 0.13
Protocol: This study was conducted in order to assess what variations in malonaldehyde (MDA) occur following VCGB administration, MDA being a reliable and quantifiable index of the vulnerability of the central nervous system to damage due to free radicals as a result of the detrimental effects of ethanol.
The experiment was conducted in Wistar male rats housed in groups of 5 per cage under constant light-dark alternation at 21°C and fed with standard laboratory feed. Two groups of rats, each comprising 5 animals, were administered 10% ethanol in water throughout the treatment period. A third group of animals was kept on a standard laboratory diet without receiving any treatment. After two months of ethanol treatment the animals in the first group were administered VCGB in aqueous solution (100 mg/kg) in a single intraperitoneal dose. A few days after treatment, the animals were sacrificed and the brains promptly removed. MDA was measured using a modified micromethod described by Slater and Sawyer (Slater T. F. and Sawyer B. C., 1971, J. Biochem. Tokyo 8: 2180). […] The samples were placed in boiling water for 10 min, and after cooling absorbance was determined at 532 nm using a spectrophotometer. […] Proteins were measured by the Smith method (Smith et al., 1985, Analyt. Biochem. 27: 502), using bicinchoninic acid as reagent. […]

[3] = system: rats chronically treated with alcohol; assay: alcohol withdrawal syndrome: convulsions on sound stimulation (electric bell, 100 dB, 1 min); conditions: 100 mg/kg intraperitoneal, eight hours after suspension of ethanol; test one hour after treatment; saline group 9/10
Protocol: The experiment was performed in Wistar male rats housed in groups of 5 per cage under constant light-dark alternation at 21°C and fed with standard laboratory feed. The animals were chronically administered 10% ethanol ad lib. for 6 months.
Eight hours after suspension of ethanol administration the animals were divided into 4 groups of 10 rats each. The first group (A) were administered saline solution (15 ml/kg) intraperitoneally, the second group (B) VCGB (100 mg/kg), again intraperitoneally, the third group (C) GHB (100 mg/kg) and the last group (D) IVC (100 mg/kg). For the purposes of evaluating the effects of the treatment on occurrence of alcohol withdrawal syndrome, the rats' susceptibility to onset of behavioral reactions (convulsions) due to emission of sound for 1 min by an electric bell (100 dB) was observed. The experiment was performed in all groups of rats one hour after treatment, and the results are given here below in Table 3.

SMILES | number of tremors, 30 min [1] | number of tremors, 60 min [1] | number of tremors, 90 min [1] | number of tremors, 120 min [1] | Number of licks (alcohol-dependent rats) | MDA [2] [nmol/mg protein] | Animals with convulsions/animals treated [3]
CC(C)CC(=O)O[C@H](CC(=O)OCCCC(=O)[O-])C[N+](C)(C)C [VCGB, isovaleryl L-carnitine gamma-hydroxybutyrate] | 0 ± 0.25 | 0 ± 0 | 0 ± 0.75 | 0 ± 0.25 | 5.6 ± 1.14 | 0.497 ± 0.15 | 1/10
CC(C)CC(=O)O[C@H](CC(=O)[O-])C[N+](C)(C)C [IVC, isovaleryl L-carnitine] | 4 ± 2 | 5 ± 2 | 5 ± 1.5 | 6 ±2 | 35.2 ± 7.4 |  | 6/10
O=C(O)CCCO [GHB, gamma-hydroxybutyric acid] | 2 ± 0.5 | 1 ± 0.5 | 2 ± 1 | 3 ± 1 | 11 ± 2.4 ▲ |  | 4/10
